From ChEMBL document CHEMBL5537115, “New broad-spectrum and potent antibacterial agents with dual-targeting mechanism: Promoting FtsZ polymerization and disrupting bacterial membranes” (Eur J Med Chem, 2024)
Activity calls are given as the source filed them. The rule behind the calls is not given here.

Key:
Acinetobacter baumannii [1] = experiment: Selectivity ratio of MBC for Acinetobacter baumannii ATCC19606 to MIC for Acinetobacter baumannii ATCC19606; type: functional
Acinetobacter baumannii [2] = experiment: Antibacterial activity against Acinetobacter baumannii ATCC19606 incubated for 18 to 24 hrs; type: functional; conditions: time 18-24 hrs
Staphylococcus aureus [3] = experiment: Selectivity ratio of MBC for Staphylococcus aureus clinical isolate to MIC for Staphylococcus aureus clinical isolate; type: functional
Staphylococcus aureus [4] = experiment: Antibacterial activity against Staphylococcus aureus clinical isolate incubated for 18 to 24 hrs; type: functional; conditions: time 18-24 hrs
Staphylococcus aureus [5] = experiment: Selectivity ratio of MBC for methicillin-resistant Staphylococcus aureus ATCC43300 to MIC for methicillin-resistant Staphylococcus aureus ATCC43300; type: functional
Bacillus subtilis [6] = experiment: Selectivity ratio of MBC for penicillin-susceptible Bacillus subtilis ATCC9372 to MIC for penicillin-susceptible Bacillus subtilis ATCC9372; type: functional
Bacillus subtilis [7] = experiment: Antibacterial activity against penicillin-susceptible Bacillus subtilis ATCC9372 incubated for 18 to 24 hrs; type: functional; conditions: time 18-24 hrs
Staphylococcus aureus [8] = experiment: Antibacterial activity against methicillin-resistant Staphylococcus aureus ATCC43300 incubated for 18 to 20 hrs; type: functional; conditions: time 18-20 hrs
Staphylococcus aureus [9] = experiment: Selectivity ratio of MBC for erythromycin-susceptible Staphylococcus aureus ATCC25923 to MIC for erythromycin-susceptible Staphylococcus aureus ATCC25923; type: functional
Staphylococcus aureus [10] = experiment: Antibacterial activity against erythromycin-susceptible Staphylococcus aureus ATCC25923 incubated for 18 to 24 hrs; type: functional; conditions: time 18-24 hrs
Streptococcus pyogenes [11] = experiment: Antibacterial activity against erythromycin-resistant Streptococcus pyogenes 2 clinical isolate assessed as bacterial growth inhibition incubated for 20 hrs by CLSI based broth microdilution method; type: functional
[12] = test system: Staphylococcus epidermidis; experiment: Antibacterial activity against penicillin-resistant Staphylococcus epidermidis clinical isolate assessed as bacterial growth inhibition incubated for 20 hrs by CLSI based broth microdilution method; type: functional
Staphylococcus aureus [13] = experiment: Antibacterial activity against Staphylococcus aureus clinical isolate assessed as bacterial growth inhibition incubated for 20 hrs by CLSI based broth microdilution method; type: functional
Staphylococcus aureus [14] = experiment: Antibacterial activity against penicillin-resistant Staphylococcus aureus ATCC31007 assessed as bacterial growth inhibition incubated for 20 hrs by CLSI based broth microdilution method; type: functional
Staphylococcus aureus [15] = experiment: Antibacterial activity against methicillin-resistant Staphylococcus aureus ATCC43300 assessed as bacterial growth inhibition incubated for 20 hrs by CLSI based broth microdilution method; type: functional
Klebsiella pneumoniae = experiment: Antibacterial activity against Klebsiella pneumoniae ATCC BAA-1902 assessed as bacterial growth inhibition incubated for 20 hrs by CLSI based broth microdilution method; type: functional
Acinetobacter baumannii [16] = experiment: Antibacterial activity against Acinetobacter baumannii ATCC19606 assessed as bacterial growth inhibition incubated for 20 hrs by CLSI based broth microdilution method; type: functional
Escherichia coli [17] = experiment: Antibacterial activity against wild-type Escherichia coli BW25113 assessed as bacterial growth inhibition incubated for 20 hrs by CLSI based broth microdilution method; type: functional
Escherichia coli [18] = experiment: Antibacterial activity against penicillin-susceptible Escherichia coli ATCC25922 assessed as bacterial growth inhibition incubated for 20 hrs by CLSI based broth microdilution method; type: functional
Enterococcus faecium [19] = experiment: Antibacterial activity against vancomycin-susceptible Enterococcus faecium ATCC19434 assessed as bacterial growth inhibition incubated for 20 hrs by CLSI based broth microdilution method; type: functional
Enterococcus faecalis [20] = experiment: Antibacterial activity against vancomycin-susceptible Enterococcus faecalis ATCC29212 assessed as bacterial growth inhibition incubated for 20 hrs by CLSI based broth microdilution method; type: functional
Streptococcus pyogenes [21] = experiment: Antibacterial activity against erythromycin-susceptible Streptococcus pyogenes 1 assessed as bacterial growth inhibition incubated for 20 hrs by CLSI based broth microdilution method; type: functional
Staphylococcus aureus [22] = experiment: Antibacterial activity against erythromycin-susceptible Staphylococcus aureus ATCC25923 assessed as bacterial growth inhibition incubated for 20 hrs by CLSI based broth microdilution method; type: functional
Bacillus pumilus = experiment: Antibacterial activity against penicillin-susceptible Bacillus pumilus CMCC63202 assessed as bacterial growth inhibition incubated for 20 hrs by CLSI based broth microdilution method; type: functional
Bacillus subtilis [23] = experiment: Antibacterial activity against penicillin-susceptible Bacillus subtilis ATCC9372 assessed as bacterial growth inhibition incubated for 20 hrs by CLSI based broth microdilution method; type: functional
Enterococcus faecalis [24] = experiment: Antibacterial activity against vancomycin-resistant Enterococcus faecalis ATCC51299 assessed as bacterial growth inhibition incubated for 20 hrs by CLSI based broth microdilution method; type: functional
Enterococcus faecium [25] = experiment: Antibacterial activity against vancomycin-resistant Enterococcus faecium ATCC51559 assessed as bacterial growth inhibition incubated for 20 hrs by CLSI based broth microdilution method; type: functional
Staphylococcus aureus [26] = experiment: Induction of resistance development in Staphylococcus aureus ATCC25923 assessed as fold increase in MIC at 0.5 times MIC measured after 32 days by multi-passage resistance assay relative to control; type: functional; conditions: time 32.0 day
Staphylococcus aureus [27] = experiment: Inhibition of biofilm formation of Staphylococcus aureus ATCC25923 incubated for 20 hrs by crystal violet staining based analysis; type: functional, organism-based
Staphylococcus aureus [28] = experiment: Inhibition of biofilm formation of Staphylococcus aureus ATCC25923 at 0.5 ug/ml incubated for 20 hrs by crystal violet staining based analysis relative to control; type: functional
Bacillus subtilis [29] = experiment: Induction of morphological change in Bacillus subtilis ATCC9372 assessed as increase in cell length at 0.5 times MIC by phase contrast microscopy; type: functional, organism-based
[30] = target: T1, Cell division protein FtsZ (Bacillus subtilis) (UniProt A5Z1V5); experiment: Induction of FtsZ polymerization in Bacillus subtilis at 2.5 to 10 ug/ml preincubated with compound followed by GTP addition by absorbance based assay; conditions: dose 2.5-10 µg/ml, time 40.0 min, TDE = time-dependent effect
T1 sequence (whole entry): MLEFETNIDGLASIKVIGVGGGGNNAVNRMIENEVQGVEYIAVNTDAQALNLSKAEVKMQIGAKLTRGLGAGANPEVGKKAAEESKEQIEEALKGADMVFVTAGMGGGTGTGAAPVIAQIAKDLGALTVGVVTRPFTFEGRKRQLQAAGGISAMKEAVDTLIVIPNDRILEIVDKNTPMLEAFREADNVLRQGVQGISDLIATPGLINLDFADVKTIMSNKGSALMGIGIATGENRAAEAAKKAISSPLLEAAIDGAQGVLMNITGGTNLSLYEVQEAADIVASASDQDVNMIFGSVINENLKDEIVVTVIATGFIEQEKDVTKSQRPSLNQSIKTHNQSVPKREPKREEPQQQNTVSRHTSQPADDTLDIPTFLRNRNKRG

[31] = target: T1, Cell division protein FtsZ (Bacillus subtilis); experiment: Induction of FtsZ polymerization in Bacillus subtilis preincubated for 10 mins followed by GTP addition measured upto 30 mins by absorbance based assay; conditions: dose 2.5-10 µg/ml, time 40.0 min
[32] = target: T1, Cell division protein FtsZ (Bacillus subtilis); experiment: Induction of FtsZ polymerization in Bacillus subtilis assessed as bundling of FtsZ protofilaments at 10 ug/ml preincubated for 15 mins followed by GTP addition measured after 10 mins by TEM analysis; conditions: dose 10.0 µg/ml, time 25.0 min
Staphylococcus aureus [33] = experiment: Induction of membrane potential depolarization in Staphylococcus aureus ATCC25923 measured after 20 mins by diSC35 dye based spectroscopy; type: functional, organism-based
Staphylococcus aureus [34] = experiment: Disruption of inner membrane in Staphylococcus aureus ATCC25923 measured after 12 mins by PI staining based analysis; type: functional, organism-based
Staphylococcus aureus [35] = experiment: Disruption of inner membrane in Staphylococcus aureus ATCC25923 by PI staining based analysis; type: functional, organism-based; conditions: time 12.0 min, TDE = time-dependent effect
Staphylococcus aureus [36] = experiment: Induction of morphological change in Staphylococcus aureus ATCC25923 assessed as loss of bacterial membrane integrity at 16 times MIC incubated for 2 hrs by TEM analysis; type: functional, organism-based
Staphylococcus aureus [37] = experiment: Induction of morphological change in Staphylococcus aureus ATCC25923 assessed as leakage of cell contents at 16 times MIC incubated for 2 hrs by TEM analysis; type: functional, organism-based
[38] = Hemolytic activity in mouse erythrocytes at 16 ug/ml incubated for 1 hr by absorbance based assay; type: toxicity, cell-based, Erythrocyte; conditions: at 16 µg/mL, read-out: Activity
[39] = Hemolytic activity in mouse erythrocytes at 32 ug/ml incubated for 1 hr by absorbance based assay; type: toxicity, cell-based, Erythrocyte; conditions: at 32 µg/mL, read-out: Activity

C[n+]1cc(-c2ccccc2)c(/C=C/c2ccc(N3CCCC3)cc2)cc1-c1ccc(C(C)(C)C)cc1.[I-]
Ratio (Acinetobacter baumannii [1]): 2 | MBC (Acinetobacter baumannii [2]): 2 µg/mL | Ratio (Staphylococcus aureus [3]): 1 | MBC (Staphylococcus aureus [4]): 0.5 µg/mL | Ratio (Staphylococcus aureus [5]): 2 | Ratio (Bacillus subtilis [6]): 1 | MBC (Bacillus subtilis [7]): 0.5 µg/mL | MBC (Staphylococcus aureus [8]): 1 µg/mL | Ratio (Staphylococcus aureus [9]): 8 | MBC (Staphylococcus aureus [10]): 1 µg/mL | MIC (Streptococcus pyogenes [11]): 1 µg/mL | MIC [12]: 1 µg/mL | MIC (Staphylococcus aureus [13]): 0.5 µg/mL | MIC (Staphylococcus aureus [14]): 0.25 µg/mL | MIC (Staphylococcus aureus [15]): 0.5 µg/mL | MIC (Klebsiella pneumoniae): 16 µg/mL | MIC (Acinetobacter baumannii [16]): 1 µg/mL | MIC (Escherichia coli [17]): 8 µg/mL | MIC (Escherichia coli [18]): 8 µg/mL | MIC (Enterococcus faecium [19]): 2 µg/mL | MIC (Enterococcus faecalis [20]): 0.5 µg/mL | MIC (Streptococcus pyogenes [21]): 0.5 µg/mL | MIC (Staphylococcus aureus [22]): 0.062 µg/mL | MIC (Bacillus pumilus): 0.062 µg/mL | MIC (Bacillus subtilis [23]): 0.5 µg/mL | MIC (Enterococcus faecalis [24]): 2 µg/mL | MIC (Enterococcus faecium [25]): 2 µg/mL | fold change (FC) (Staphylococcus aureus [26]): 2 | inhibition (Staphylococcus aureus [27]): Dose-Dependent Effect | inhibition at 0.5 µg/mL (Staphylococcus aureus [28]): 59.1% | Activity (Bacillus subtilis [29]): Active | Activity [30]: Tde | Activity [31]: Dose-Dependent Effect | Activity [32]: Active | Activity (Staphylococcus aureus [33]): Dose-Dependent Effect | Activity (Staphylococcus aureus [34]): Dose-Dependent Effect | Activity (Staphylococcus aureus [35]): Tde | Activity (Staphylococcus aureus [36]): Active | Activity (Staphylococcus aureus [37]): Active | hemolysis at 1 h, 16 ug/ml [38]: 4.65% | hemolysis at 1 h, 32 ug/ml [39]: 13.7%
